Assay results published in patent US20060265780A1, “Interaction of glyphosate with photosystem II inhibitor herbicides as a selection tool for roundup ready events” (Monsanto Technology LLC, priority 2005, published 2006).
Where two headings read alike, the source gives them in different places.

Key:
Format in all cases: in vivo
GA 21 corn event [1] = details: for % Yield / % Grain Moisture: harvest, 19 locations
GA 21 corn event [2] = tested on: GA 21 corn event
Description: (§1) The glyphosate tolerance of RoundUp Ready corn events NK 603 and GA 21 were characterized in field trials. Corn was planted in 36 inch rows in plots of 4 rows by 30 ft with the two center rows being harvested. The study comprised 22 locations with 4 replicates of each treatment per location and the data were pooled across locations. Corn plants were treated with glyphosate at two consecutive developmental ages of V4 and V8. Glyphosate application rates were 0.75, 1.5, and 2.23 pounds per acre (lbs/A). Application volume was 10 gallons/acre. […] Data for chlorosis, malformed leaves, and growth reduction was collected at 22 locations. Also, at harvest of mature corn plants, the yield percentage and grain moisture percentage were assessed. Data for yield and grain moisture was collected at harvest at 19 locations and expressed as the mean percentage yield or moisture with respect to controls.

NK 603 corn event [3] = tested on: NK 603 corn event
Description: as §1

[4] = tested on: RX 686 Roundup Ready corn hybrid (GA 21 event); assay: Greenhouse glyphosate/PSII inhibitor injury assay, Example 2; details: single application, treated at 2 leaves unfolded (GS 12)
Description: (§2) Two corn seeds were planted one inch deep per 3.5×3.5 inch plastic pot filled with commercial potting mix (Redi-earth). The potting mix was supplemented with Osmacote™ 14-14-14 slow release fertilizer at 100 gm/ft3 to optimize growth. Pots were then placed in a greenhouse (25 C day/19 C night, 14 hour day) and water was supplied through subirrigation. Plants were allowed to grow to the stage where 3 leaves were unfolded (6-9 days after planting, approximate growth stage of GS 13) prior to the application of glyphosate and photosystem II inhibitor.
(§3) Herbicide treatments consisted of application of glyphosate and PSII inhibitor. Application rates for glyphosate (Roundup UltraMAX, Monsanto, St. Louis) included: 840 gm/ha; 1680 gm/ha; and 3360 gm/ha (i.e., 0.75 lbs/A; 1.5 lbs/A; and 3.0 lbs/A). Application rates for linuron (Lorox, DuPont) included 56 gm/ha; 112 gm/ha; and 224 gm/ha. Application rates for metribuzin (Sencor, Bayer) included 56 gm/ha; 112 gm/ha; and 224 gm/ha. Treatments were broadcast applied in a research track sprayer utilizing an even flat fan spray tip. Plants were returned to the greenhouse following applications. Growth inhibition was measured 10 days after treatment (DAT). […] Growth reduction can be measured about 7-10 DAT by direct or visual estimation (0=no growth reduction, 100=complete growth reduction).
(§4) Roundup Ready corn hybrids tested were RX 686Roundup Ready (GA 21 event) and DKC 53-33(NK 603 event). Growth of plant material and treatment regime was as described in Example 1, except plants were allowed to grow to the stage where 2 leaves were unfolded (approximately GS 12) prior to the application of glyphosate and photosystem II inhibitor. Growth inhibition was measured 10 days after treatment (DAT).

[5] = tested on: DKC 53-33 corn hybrid (NK 603 event); assay: as above; details: single application, treated at 2 leaves unfolded (GS 12)
Description: as §2, §3, §4

NK 603 corn event [6] = tested on: NK 603 corn event; remark: listed apart in the source
[7] = glyphosate rate 0.75/0.75 (lbs/A) at V4/V8, 22 locations
[8] = glyphosate rate 1.5/1.5 (lbs/A) at V4/V8, 22 locations
[9] = glyphosate rate 1.5/1.5 at V4/V8, locations with injury greater than 9%
[10] = glyphosate rate 2.25/2.25 (lbs/A) at V4/V8, 22 locations
[11] = glyphosate rate 2.25/2.25 at V4/V8, locations with injury greater than 9%
[12] = glyphosate rate 2.25/2.25 at V4/V8, mean with respect to controls
[13] = glyphosate rate 0.75/0.75 at V4/V8, mean with respect to controls, harvest, 19 locations
[14] = NK 603, glyphosate rate 0.75/0.75 (lbs/A) at V4/V8, 22 locations
[15] = NK 603, glyphosate rate 1.5/1.5 (lbs/A) at V4/V8, 22 locations
[16] = NK 603, glyphosate rate 1.5/1.5 at V4/V8, mean with respect to controls, harvest, 19 locations
[17] = glyphosate rate 2.25/2.25 at V4/V8, mean with respect to controls, harvest, 19 locations

`O=C(O)CNCP(=O)(O)O` [glyphosate, N-phosphonomethylglycine] was tested, and the “% Growth Reduction 10 DAT: number of locations exhibiting injury greater than 9%” value (“% Growth Reduction 10 DAT: number” below) (GA 21 corn event [1]; [7]) was “None”, the “% Growth Reduction 30 DAT: number of locations exhibiting injury greater than 9%” value (shortened to “% Growth Reduction 30 DAT: number”) (GA 21 corn event [1]; [7]) was “None” and the “% Yield” value (GA 21 corn event [1]; glyphosate rate 0.75/0.75 at V4/V8, mean with respect to controls) was 101.8%. The “% Chlorosis 10 DAT: number of locations exhibiting injury greater than 9%” value (“% Chlorosis 10 DAT: number” for short) (GA 21 corn event [1]; [8]) was 3, the “% Growth Reduction 10 DAT: number” value (GA 21 corn event [1]; [8]) was 5 and the “% Malform 10 DAT: number of locations exhibiting injury greater than 9%” value (“% Malform 10 DAT: number” for short) (GA 21 corn event [1]; [8]) was 5. The “% Chlorosis 10 DAT: percentage range of observed injury” value (shortened to “% Chlorosis 10 DAT: percentage range”) (GA 21 corn event [1]; [9]) was 10-14%, the “% Malform 10 DAT: percentage range of observed injury” value (“% Malform 10 DAT: percentage range” below) (GA 21 corn event [1]; [9]) was 11-16% and the “% Grain Moisture” value (GA 21 corn event [1]; glyphosate rate 1.5/1.5 at V4/V8, mean with respect to controls) was 101.0%. For the same compound, the “% Chlorosis 10 DAT: number” value (GA 21 corn event [1]; [10]) was 3, the “% Growth Reduction 10 DAT: number” value (GA 21 corn event [1]; [10]) was 7 and the “% Growth Reduction 30 DAT: number” value (GA 21 corn event [1]; [10]) was 4. The “% Malform 10 DAT: number” value (GA 21 corn event [1]; [10]) was 6, the “% Growth Reduction 10 DAT: percentage range of observed injury” value (GA 21 corn event [1]; [11]) was 11-30% and the “% Malform 10 DAT: percentage range” value (GA 21 corn event [1]; [11]) was 10-33%. For the same compound, the “% Grain Moisture” value (GA 21 corn event [1]; [12]) was 101.6%, the “% Yield” value (GA 21 corn event [1]; [12]) was 90.8% and the “% Chlorosis 10 DAT: number” value (GA 21 corn event [2]; [7]) was “None”. For the same compound, the “% Malform 10 DAT: number” value (GA 21 corn event [2]; [7]) was “None”, the “% Grain Moisture” value (GA 21 corn event [2]; [13]) was 100.7% and the “% Growth Reduction 30 DAT: number” value (GA 21 corn event [2]; [8]) was 1. For the same compound, the “% Growth Reduction 10 DAT: percentage range of observed injury” value (GA 21 corn event [2]; [9]) was 10-14%, the “% Growth Reduction 30 DAT: percentage range of observed injury” value (GA 21 corn event [2]; [9]) was 11% and the “% Yield” value (GA 21 corn event [2]; glyphosate rate 1.5/1.5 at V4/V8, mean with respect to controls, harvest, 19 locations) was 97.8%. The “% Chlorosis 10 DAT: percentage range” value (GA 21 corn event [2]; [11]) was 11-21%, the “% Growth Reduction 30 DAT: percentage range of observed injury” value (GA 21 corn event [2]; [11]) was 10-13% and the “% Chlorosis 10 DAT: number” value (NK 603 corn event [3]; [14]) was “None”. For the same compound, the “% Malform 10 DAT: number” value (NK 603 corn event [3]; [14]) was “None”, the “% Yield” value (NK 603 corn event [3]; NK 603, glyphosate rate 0.75/0.75 at V4/V8, mean with respect to controls, harvest, 19 locations) was 103.3% and the “% Chlorosis 10 DAT: number” value (NK 603 corn event [3]; [15]) was “None”. The “% Growth Reduction 30 DAT: number” value (NK 603 corn event [3]; [15]) was “None”, the “% Malform 10 DAT: percentage range” value (NK 603 corn event [3]; NK 603, glyphosate rate 1.5/1.5 at V4/V8, locations with injury greater than 9%) was 10-11% and the “% Grain Moisture” value (NK 603 corn event [3]; [16]) was 101.7%. The “% Yield” value (NK 603 corn event [3]; [16]) was 99.4%, the injury (NK 603 corn event [3]; glyphosate applications up to 3360 gm/ha, even applied sequentially, NK 603 event (e.g. DKC 53-33 hybrid)) was “no injury” and the crop injury [4] was “did not produce any discernable crop injury”. The crop injury [5] was “did not produce any discernable crop injury”, the “% Growth Reduction 10 DAT: number” value (NK 603 corn event [6]; [7]) was “None” and the “% Growth Reduction 30 DAT: number” value (NK 603 corn event [6]; [7]) was “None”. The “% Grain Moisture” value (NK 603 corn event [6]; [13]) was 100.2%, the “% Growth Reduction 10 DAT: number” value (NK 603 corn event [6]; [8]) was “None” and the “% Malform 10 DAT: number” value (NK 603 corn event [6]; [8]) was 3. For the same compound, the “% Chlorosis 10 DAT: number” value (NK 603 corn event [6]; [10]) was 3, the “% Growth Reduction 10 DAT: number” value (NK 603 corn event [6]; [10]) was 3 and the “% Growth Reduction 30 DAT: number” value (NK 603 corn event [6]; [10]) was 2. For the same compound, the “% Malform 10 DAT: number” value (NK 603 corn event [6]; [10]) was 6, the “% Chlorosis 10 DAT: percentage range” value (NK 603 corn event [6]; [11]) was 11-19% and the “% Growth Reduction 10 DAT: percentage range of observed injury” value (NK 603 corn event [6]; [11]) was 10-19%. The “% Growth Reduction 30 DAT: percentage range of observed injury” value (NK 603 corn event [6]; [11]) was 11-15%, the “% Malform 10 DAT: percentage range” value (NK 603 corn event [6]; [11]) was 11-19% and the “% Grain Moisture” value (NK 603 corn event [6]; [17]) was 103.1%. For the same compound, the “% Yield” value (NK 603 corn event [6]; [17]) was 96.6%.
For `CON(C)C(=O)Nc1ccc(Cl)c(Cl)c1` [linuron], the crop injury [4] was “did not produce any discernable crop injury” and the crop injury [5] was “did not produce any discernable crop injury”.
For `CSc1nnc(C(C)(C)C)c(=O)n1N` [metribuzin], the crop injury [4] was “did not produce any discernable crop injury” and the crop injury [5] was “did not produce any discernable crop injury”.
